From patent EP1196433B1, “CYCLIC PEPTIDE DERIVATIVES AS INHIBITORS OF INTEGRIN ALPHA v BETA 6” (Merck Patent GmbH, priority 1999, dated 2001)
Non-standard residues stand in square brackets, D forms with d. Residues, ends and D or L forms follow the SMILES beside them.

Target: T1, αvβ6 Rezeptor (Homo sapiens, UniProt P06756+P18564)
T1 construct: Die Immobilisierung von löslichem αvβ6 Rezeptor auf Microtiterplatten
Test: αvβ6 / fibronectin receptor binding test (competition of peptide with biotinylated fibronectin on immobilised integrin, ELISA read-out)
Conditions: for -log Q / Q (IC50[Substanz] / IC50[EMD 271293]): peptides Cyclo-(Arg-Gly-Asp-Leu-D-Asp-Ala-Leu-Arg-R^1), labelled by R^1; for -log Q: Q = IC50[Substanz] / IC50[EMD 271293]; for Q (IC50[Substanz] / IC50[EMD 271293]): ratio to comparison compound EMD 271293; for Q-Wert = IC50 Testpeptid / IC50 EMD 271293: standard Ac-RTDLDSLR-NH2, Q values of repeated experiments averaged
Text: αvβ6 / Fibronektin Rezeptorbindungstest:
Die hergestellten erfindungsgemäßen Peptide wurden in Lösung zusammen mit kompetetiv wirkenden Fibronektin an den immobiliserten αvβ6 Rezeptor gebunden und der Q-Wert als Maß für die Selektivität der Bindung des zu testenden Peptids an αvβ6 ermittelt. Der Q-Wert berechnet sich dabei aus dem Quotienten der IC50-Werte von Testpeptid und einem Standard. Als Standard diente das lineare Ac-RTDLDSLR-NH2 (Code EMD 271293) (Lit./Patent vgl Pytela et al. Science 231, 1559, (1986)). Der Bindungstest wurde im einzelnen wie folgt durchgeführt: • Die Immobilisierung von löslichem αvβ6 Rezeptor auf Microtiterplatten erfolgte durch Verdünnung der Proteinlösung in TBS++ und anschliessender Inkubation über Nacht bei 4°C (100 µl/Vertiefung). Unspezifische • Bindungsstellen wurden durch Inkubation (2 h, 37°C) mit 3% (w/v) BSA in TBS++ (200 µl/Vertiefung) blockiert. Überschüssiges BSA wurde durch dreimaliges Waschen mit TBSA++ entfernt. Peptide wurden seriell (1:10) in TBSA++ verdünnt und zusammen mit biotinyliertem Fibronektin (2 µg/ ml) mit dem immobilisierten Integrin inkubiert (50 µl Peptid + 50 µl Ligand pro Vertiefung; 2 h; 37°C). Nicht gebundenes Fibronektin und Peptide wurden durch dreimaliges Waschen mit TBSA++ entfernt. Die Detektion des gebundenen Fibronektin erfolgte durch Inkubation (1 h; 37 °C) mit einem alkalische-Phosphatase-gekoppelten anti-Biotin-Antikörper (Biorad) (1:20000 in TBSA++; 100 µl/Vertiefung). Nach dreimaligem Waschen mit TBSA++ erfolgte die kolorimetrische Detektion durch Inkubation (10-15 min; 25°C, im Dunkeln) mit Substratlösung (5 mg Nitrophenylphosphat, 1 ml Ethanolamin, 4 ml H2O; 100 µl/Vertiefung). Die Enzymreaktion wurde durch Zugabe von 0,4 M NaOH (100 µl/Vertiefung) gestoppt. Die Farbintensität wurde bei 405 nm im ELISA-Meßgerät bestimmt und gegen den Nullwert abgeglichen. Als Nullwert dienten Vertiefungen, die nicht mit Rezeptor beschichtet waren. Als Standard wurde Ac-RTDLDSLR-NH2 eingesetzt. Die IC50-Werte für die getesteten Peptide wurden aus einer Graphik abgelesen und daraus zusammen mit dem IC50-Wert des Standardpeptids der Q-Wert des erfindungsgemäßen Peptids ermittelt. Q-Wert = IC50 Testpeptid/IC50 Standard [formula] Q-Werte aus Versuchswiederholungen wurden gemittelt.

[1] = biotinylated fibronectin 2 µg/ml

T1 sequence (P06756 31-992 limits assumed): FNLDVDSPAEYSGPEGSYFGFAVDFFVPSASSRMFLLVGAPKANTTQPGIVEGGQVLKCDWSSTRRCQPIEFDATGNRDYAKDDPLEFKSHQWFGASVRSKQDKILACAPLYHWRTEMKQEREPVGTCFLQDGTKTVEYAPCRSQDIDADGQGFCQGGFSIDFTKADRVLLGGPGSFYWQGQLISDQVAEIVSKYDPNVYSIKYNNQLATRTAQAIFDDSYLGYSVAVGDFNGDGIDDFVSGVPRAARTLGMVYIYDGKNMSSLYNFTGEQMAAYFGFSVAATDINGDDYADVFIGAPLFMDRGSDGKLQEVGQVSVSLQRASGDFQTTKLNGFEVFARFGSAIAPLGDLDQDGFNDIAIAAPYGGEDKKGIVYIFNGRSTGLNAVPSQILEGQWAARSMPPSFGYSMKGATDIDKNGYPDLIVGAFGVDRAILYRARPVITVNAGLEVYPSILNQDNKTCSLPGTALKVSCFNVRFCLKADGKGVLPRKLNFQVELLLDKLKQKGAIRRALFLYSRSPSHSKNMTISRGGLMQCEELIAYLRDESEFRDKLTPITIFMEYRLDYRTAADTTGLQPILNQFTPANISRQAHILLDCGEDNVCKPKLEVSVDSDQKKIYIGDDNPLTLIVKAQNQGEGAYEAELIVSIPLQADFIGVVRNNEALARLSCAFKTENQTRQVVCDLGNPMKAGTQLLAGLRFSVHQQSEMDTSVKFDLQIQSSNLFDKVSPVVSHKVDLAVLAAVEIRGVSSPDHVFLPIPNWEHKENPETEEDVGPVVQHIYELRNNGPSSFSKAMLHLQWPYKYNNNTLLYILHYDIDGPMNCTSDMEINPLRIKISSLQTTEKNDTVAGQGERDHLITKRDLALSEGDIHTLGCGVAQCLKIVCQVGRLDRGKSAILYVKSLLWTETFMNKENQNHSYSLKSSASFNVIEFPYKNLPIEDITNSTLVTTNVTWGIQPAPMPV
T1 sequence (P18564 22-709 limits assumed): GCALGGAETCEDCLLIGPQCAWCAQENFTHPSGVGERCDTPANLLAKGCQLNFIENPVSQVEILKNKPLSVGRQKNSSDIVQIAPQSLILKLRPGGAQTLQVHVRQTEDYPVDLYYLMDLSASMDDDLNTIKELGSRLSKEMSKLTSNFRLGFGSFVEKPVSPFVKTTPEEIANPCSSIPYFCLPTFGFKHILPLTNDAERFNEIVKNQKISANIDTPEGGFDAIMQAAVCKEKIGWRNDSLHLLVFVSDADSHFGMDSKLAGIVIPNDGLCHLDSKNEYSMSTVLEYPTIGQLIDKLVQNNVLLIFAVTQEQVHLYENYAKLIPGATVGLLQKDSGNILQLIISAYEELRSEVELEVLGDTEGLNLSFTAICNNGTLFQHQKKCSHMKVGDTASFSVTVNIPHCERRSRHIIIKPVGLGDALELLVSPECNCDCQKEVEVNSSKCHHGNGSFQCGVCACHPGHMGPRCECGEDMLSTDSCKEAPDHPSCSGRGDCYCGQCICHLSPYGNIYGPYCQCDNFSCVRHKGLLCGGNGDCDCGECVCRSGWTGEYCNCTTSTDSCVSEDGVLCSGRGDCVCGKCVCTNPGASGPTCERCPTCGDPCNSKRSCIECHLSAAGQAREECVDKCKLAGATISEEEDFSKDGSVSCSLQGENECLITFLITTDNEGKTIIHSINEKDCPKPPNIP

Compound	-log Q	Q (IC50[Substanz] / IC50[EMD 271293])	IC50 (IC50 of the standard peptide, printed in brackets beside its Q value, biotinylated fibronectin 2 µg/ml)	Q-Wert = IC50 Testpeptid / IC50 EMD 271293 [1]
cyclo-(RGDLdALR-Abu) [EMD 273035]	1,553	0,028		
CC(C)C[C@@H]1NC(=O)[C@H](C)NC(=O)[C@@H](CC(=O)O)NC(=O)[C@H](CC(C)C)NC(=O)[C@H](CC(=O)O)NC(=O)CNC(=O)[C@H](CCCNC(=N)N)NC(=O)CNC(=O)CNC(=O)CNC(=O)CNC(=O)[C@H](CCCNC(=N)N)NC1=O [EMD 272961, cyclo-(RGDLdALRGGGG)] (cyclo(RGDL[dD]ALRGGGG))	1,481	0,033		
CC(=O)N[C@@H](CCCNC(=N)N)C(=O)N[C@H](C(=O)N[C@@H](CC(=O)O)C(=O)N[C@@H](CC(C)C)C(=O)N[C@@H](CC(=O)O)C(=O)N[C@@H](CO)C(=O)N[C@@H](CC(C)C)C(=O)N[C@@H](CCCNC(=N)N)C(N)=O)[C@@H](C)O [compound 271293] (Ac-RTDLDSLR-NH2)			75 nM	1,00
cyclo-(RGDLdALR-Aha-Aha) [EMD 272958]	1,444	0,036		
cyclo-(RGDLdALR-Abu-Abu) [EMD 272914]	1,523	0,03		
CC(C)C[C@@H]1NC(=O)[C@H](C)NC(=O)[C@@H](CC(=O)O)NC(=O)[C@H](CC(C)C)NC(=O)[C@H](CC(=O)O)NC(=O)CNC(=O)[C@H](CCCNC(=N)N)NC(=O)CNC(=O)CNC(=O)CNC(=O)[C@H](CCCNC(=N)N)NC1=O [compound 271593] (cyclo(RGDL[dD]ALRGGG))				0,03
CC(C)C[C@@H]1NC(=O)[C@H](C)NC(=O)[C@@H](CC(=O)O)NC(=O)[C@H](CC(C)C)NC(=O)[C@H](CC(=O)O)NC(=O)CNC(=O)[C@H](CCCNC(=N)N)NC(=O)CNC(=O)CNC(=O)[C@H](CCCNC(=N)N)NC1=O [EMD 271592, cyclo-(RGDLdALRGG)] (cyclo(RGDL[dD]ALRGG))	1,301	0,05		
cyclo-(RGDLdALR-Aha) [EMD 272959]	1,444	0,036		
CC(C)C[C@@H]1NC(=O)[C@H](C)NC(=O)[C@@H](CC(=O)O)NC(=O)[C@H](CC(C)C)NC(=O)[C@H](CC(=O)O)NC(=O)CNC(=O)[C@H](CCCNC(=N)N)NC(=O)CNC(=O)[C@H](CCCNC(=N)N)NC1=O [compound 271591] (cyclo(RGDL[dD]ALRG))				2,1
CC(C)C[C@@H]1NC(=O)[C@H](C)NC(=O)[C@@H](CC(=O)O)NC(=O)[C@H](CC(C)C)NC(=O)[C@H](CC(=O)O)NC(=O)CNC(=O)[C@H](CCCNC(=N)N)NC(=O)CNC(=O)CNC(=O)CNC(=O)CNC(=O)[C@H](CCCNC(=N)N)NC1=O [compound 272961] (cyclo(RGDL[dD]ALRGGGG))				0,033
CC(C)C[C@@H]1NC(=O)[C@H](C)NC(=O)[C@@H](CC(=O)O)NC(=O)[C@H](CC(C)C)NC(=O)[C@H](CC(=O)O)NC(=O)CNC(=O)[C@H](CCCNC(=N)N)NC(=O)CNC(=O)[C@H](CCCNC(=N)N)NC1=O [EMD 271591, cyclo-(RGDLdALRG)] (cyclo(RGDL[dD]ALRG))	-0,322	2,1		
CC(C)C[C@@H]1NC(=O)[C@H](C)NC(=O)[C@@H](CC(=O)O)NC(=O)[C@H](CC(C)C)NC(=O)[C@H](CC(=O)O)NC(=O)CNC(=O)[C@H](CCCNC(=N)N)NC(=O)CNC(=O)CNC(=O)CNC(=O)CNC(=O)CNC(=O)CNC(=O)[C@H](CCCNC(=N)N)NC1=O [EMD 271594, cyclo-(RGDLdALRGGGGGG)] (cyclo(RGDL[dD]ALRGGGGGG))	1,301	0,05		
CC(C)C[C@@H]1NC(=O)[C@H](C)NC(=O)[C@@H](CC(=O)O)NC(=O)[C@H](CC(C)C)NC(=O)[C@H](CC(=O)O)NC(=O)CNC(=O)[C@H](CCCNC(=N)N)NC(=O)CNC(=O)CNC(=O)CNC(=O)CNC(=O)CNC(=O)CNC(=O)[C@H](CCCNC(=N)N)NC1=O [compound 271594] (cyclo(RGDL[dD]ALRGGGGGG))				0,05
CC(C)C[C@@H]1NC(=O)[C@H](C)NC(=O)[C@@H](CC(=O)O)NC(=O)[C@H](CC(C)C)NC(=O)[C@H](CC(=O)O)NC(=O)CNC(=O)[C@H](CCCNC(=N)N)NC(=O)CNC(=O)CNC(=O)[C@H](CCCNC(=N)N)NC1=O [compound 271592] (cyclo(RGDL[dD]ALRGG))				0,05
CC(C)C[C@@H]1NC(=O)[C@H](C)NC(=O)[C@@H](CC(=O)O)NC(=O)[C@H](CC(C)C)NC(=O)[C@H](CC(=O)O)NC(=O)CNC(=O)[C@H](CCCNC(=N)N)NC(=O)CNC(=O)CNC(=O)CNC(=O)[C@H](CCCNC(=N)N)NC1=O [EMD 271593] (cyclo(RGDL[dD]ALRGGG))	1,523	0,03		
CC(C)C[C@@H]1NC(=O)[C@H](C)NC(=O)[C@@H](CC(=O)O)NC(=O)[C@H](CC(C)C)NC(=O)[C@H](CC(=O)O)NC(=O)CNC(=O)[C@H](CCCNC(=N)N)NC(=O)CNC(=O)CNC(=O)CNC(=O)CNC(=O)CNC(=O)[C@H](CCCNC(=N)N)NC1=O [compound 272962] (cyclo(RGDL[dD]ALRGGGGG))				0,046
CC(C)C[C@@H]1NC(=O)[C@H](C)NC(=O)[C@@H](CC(=O)O)NC(=O)[C@H](CC(C)C)NC(=O)[C@H](CC(=O)O)NC(=O)CNC(=O)[C@H](CCCNC(=N)N)NC(=O)CNC(=O)CNC(=O)CNC(=O)CNC(=O)CNC(=O)[C@H](CCCNC(=N)N)NC1=O [EMD 272962, cyclo-(RGDLdALRGGGGG)] (cyclo(RGDL[dD]ALRGGGGG))	1,337	0,046		
